Like-named read-outs stand apart in the source and are kept apart here.
Columns and labels:
[1] = system: ERK1/2; assay: autophosphorylation of ERK (mechanism of action of ERK1/2 inhibitors); type: biochemical; conditions: stated in the description, no test described
[2] = system: cancers harboring atypical (non-V600E/K) BRAF mutations; assay: solid tumor Phase 1b trial of BVD-523, tumor response by RECIST v1.1 and duration of treatment; type: in vivo, human; conditions: for duration of treatment: single patient
Protocol: The waterfall plot depicted in FIG. 2 provides an illustration of human clinical trial patient information showing each individual patient's response to treatment with BVD-523, as measured by % change in tumor burden. Patients generally received 600 mg, twice daily (BID), with some patients receiving a deescalated dose of 300 mg-400 mg BID if side effects were not manageable with other palliative medication. […] The horizontal axis across the plot serves as a baseline measurement for each patient. The vertical axis is a measure of the maximum percentage change from baseline; i.e., percent growth or reduction of tumor burden by radiologic measurement according to RECIST v1.1. Radiologic measurement comprised computed tomography (CT) scan and, rarely, magnetic resonance imaging (MRI). The tumor burden data represented by FIG. 2 is arranged from the worst value (i.e. greatest progression of tumor burden) on the left side of the plot to the best value (i.e., greatest reduction of tumor burden) on the right side of the plot. RECIST v1.1 response criteria for measured target lesions have been described previously. (See Eisenhauer, E. A., et al., New response evaluation criteria in solid tumours: Revised RECIST guideline (version 1.1), European J. of Cancer 45, 228-247 (2009), incorporated by reference herein in its entirety). […] Members of Group 1 are any patients with any BRAF mutation in any tumor type other than colorectal cancer (CRC) and non-small cell lung carcinoma (NSCLC), and that have not been previously treated with a MAPK pathway inhibitor. The members of Group 2 are patients with any BRAF mutation in CRC that have not been previously treated with a MAPK pathway inhibitor. The members of Group 3 are patients having a tumor with a BRAF […] mutation that is refractory to MAPK inhibitor treatment. The members of Group 6 are patients with any BRAF mutation present in NSCLC. […] The duration of treatment for each subject in each group is illustrated from the top (longest treatment duration) to bottom (least treatment duration) of the groups. The horizontal axis represents the duration, in days, that the patient was on the study. […] All 28 patients measured for RECIST v1.1 response criteria are included, plus additional patients not evaluated by RECIST v1.1 (diamond=partial response; circle=stable disease: vertical bar=progressive disease; triangle=not evaluated). The mean duration of BVD-523 treatment before discontinuation for tumors harboring the same BRAF mutation was: […], 73.6 days; […], 208.14 days: […], 50.25 days: […], 73.3 days; […], 63.5 days. For single patient representatives of specific BRAF mutations, the duration of treatment was: […], 304 days: […], 84 days: […], 77 days: BRAF fusion, 65 days: BRAF-AGAP3 rearrangement, 43 days: BRAF exon 15 splice variant, 15 days. By genomic screening of cancer patients for BRAF mutation and treating them prior to full in vitro characterization of those mutations (as a driver mutation), BVD-523 is shown to be useful to interrogate and discover efficacious treatment options for patients carrying mutations in BRAF. The clinical population of patients and the efficacy is not defined primarily by tumor type, but rather mutational status of enzymes such as BRAF, upstream of ERK 1/2 kinase activation.

[3] = system: ERK1/2; conditions: Morris et al., 2013; cited from earlier work
[4] = 28 evaluable patients, RECIST v1.1, generally 600 mg BID

SMILES | effect on autophosphorylation of ERK [1] | number of patients with partial response (PR) [2, 4] | number of patients with progressive disease at first evaluation [2, 4] | number of patients with stable disease [2, 4] [patients] | patients with partial response or stable disease ([2]; patients with atypical (non-V600E/K) BRAF mutations, RECIST v1.1) | duration of treatment ([2]; BRAF F247L) [days] | duration of treatment ([2]; BRAF G466V) [days] | duration of treatment ([2]; BRAF L485W) [days] | duration of treatment ([2]; BRAF exon 15 splice variant) [days] | duration of treatment ([2]; BRAF fusion) [days] | duration of treatment ([2]; BRAF-AGAP3 rearrangement) [days] | mean duration of treatment before discontinuation ([2]; tumors harboring BRAF D594) [days] | mean duration of treatment before discontinuation ([2]; tumors harboring BRAF G469) [days] | mean duration of treatment before discontinuation ([2]; tumors harboring BRAF K601E) [days] | mean duration of treatment before discontinuation ([2]; tumors harboring BRAF L597) [days] | mean duration of treatment before discontinuation ([2]; tumors harboring BRAF T599 Dup) [days] | effect on autophosphorylation of ERK [3]
CC(C)Nc1cc(-c2c[nH]c(C(=O)N[C@H](CO)c3cccc(Cl)c3)c2)c(Cl)cn1 [BVD-523] | allows for the autophosphorylation of ERK while still inhibiting ERK | Five | Three | 19 | 24 out of 28 | 84 | 77 | 304 | 15 | 65 | 43 | 73.6 | 208.14 | 50.25 | 73.3 | 63.5 | –
O=C(Nc1ccc2[nH]nc(-c3ccncc3)c2c1)[C@@H]1CCN(CC(=O)N2CCN(c3ccc(-c4ncccn4)cc3)CC2)C1 [SCH772984] | – | – | – | – | – | – | – | – | – | – | – | – | – | – | – | – | inhibit autophosphorylation of ERK

From US12582635B2, “Compositions and methods for treating cancer with atypical BRAF mutations” (BIOMED VALLEY DISCOVERIES, INC., priority 2017, dated 2026)
